# Experimental data reported in patent US10292390B2, “Inhibition and dispersion of bacterial biofilms with 2-aminobenzimidazole derivatives” (WISCONSIN ALUMNI RESEARCH FOUNDATION, priority 2011, dated 2019).
# Key:
# [1] = solubility of stock in 95:5 M9+:LB media; type: physicochemical; settings: at 3.16 mM in 95:5 M9+:LB media
# Experimental: Compounds 7 and 21 were evaluated for their ability to disperse preformed P. aeruginosa biofilms. For biofilm dispersion assessment, the static CV biofilm assay described above was modified in order to introduce compound to preformed biofilm for an additional incubation period. Solvent evaporation delivery of compound was not possible in this format; thus, stock solutions of compounds 7 and 21 were prepared in 95:5 M9+:LB media. Stocks of 7 and 21 were prepared at 3.16 mM and 1 mM, respectively (21 was insoluble at 3.16 mM). These stocks were diluted in series to obtain final concentrations as follows: 10^x μM where x=3.5 (7 only), 3, 2.5, 2, 1.5 (21 only), 1, 0, −1, or −2. Biofilms were allowed to form in microtiter plates in the absence of compound for 24 h, after which non-biofilm material was removed by dumping and washing as normal with sterile PBS. After the second washing, 200 μL of fresh 95:5 M9+:LB media containing compound at various concentrations was added to the wells, and the plates were incubated at 37° C. for an additional 24 h. […] Biofilm was fixed and quantified with CV as described above. The amount of dispersed biofilm was determined via comparison of the amount of biofilm at 48 h in the presence of compound versus the amount of biofilm in the “no compound” positive control at 24 h. […]
# COS-7 cells = test: fluorescence-based live/dead cytotoxicity assay; type: cell-based; settings: 24 hrs, live/dead staining
# Experimental: Experiments to characterize the toxicity of exemplary compound 21 in a model mammalian cell line were conducted by incubating COS-7 African Green Monkey kidney cells (American Type Culture Collection, Manassas, Va.), a fibroblast-like mammalian cell line, in the presence of varying amounts of compound 21 and characterizing resulting levels of cell death using a standard fluorescence-based live/dead assay. Cells were seeded in 96-well plates by adding 200 μL of a suspension containing 50,000 cells/mL in cell culture media (Gibco® DMEM supplemented with 10% (v/v) fetal bovine serum, 100 units/mL penicillin, and 100 μg/mL streptomycin) in individual wells of a black-walled, clear-bottomed 96-well cell culture plate (Costar 3603). […] Fluorescence microscopy images of the wells were acquired using an Olympus IX70 microscope and Metavue version 7.1.2.0 software package (Molecular Devices, Toronto, Canada). Images were analyzed using Image J 1.43u (National Institutes of Health; Washington, D.C.). Live and dead cell results were also analyzed by averaging the mean fluorescence from a minimum of six images taken from three replicate samples and normalized to untreated (live control) and methanol-treated (dead control) wells (see FIG. 20).
smiles,measurement,setting,value
"Cc1cc2nc(N)[nH]c2cc1C [Compound 21, 5,6-Dimethyl-2-aminobenzimidazole]",solubility,[1],insoluble
same,concentrations at which not substantially cytotoxic,COS-7 cells,below 0.25 mM
